The values below come from publication PMC5546122, “Effects of Fungicides on Rat's Neurosteroid Synthetic Enzymes” (BioMed Research International, 2017).

As a reminder, the Km is the substrate concentration at which the rate is half of its maximum. In general, Vmax refers to the top rate of the reaction or transport when substrate is in excess.

For data set [1], the target named is T1, RDH2 (retinol dehydrogenase 2) (Rattus norvegicus, UniProt P50170).
T1 construct: gene Rdh16; full-length cDNA in pcDNA1.1, transient expression in COS-1 cells, microsomal fraction
T1 sequence (P50170 1-317): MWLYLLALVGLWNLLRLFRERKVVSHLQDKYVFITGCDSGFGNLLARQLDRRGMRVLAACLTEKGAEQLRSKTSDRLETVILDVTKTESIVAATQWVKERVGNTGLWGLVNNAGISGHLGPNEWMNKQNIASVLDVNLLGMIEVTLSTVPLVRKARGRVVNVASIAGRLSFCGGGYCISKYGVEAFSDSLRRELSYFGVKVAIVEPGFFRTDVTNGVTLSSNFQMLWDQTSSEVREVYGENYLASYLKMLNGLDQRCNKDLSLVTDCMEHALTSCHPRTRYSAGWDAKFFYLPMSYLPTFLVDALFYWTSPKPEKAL
In words: radiometric TLC enzyme assay, transfected COS-1 microsomes. Format: biochemical. The text has this:
radiometric TLC enzyme assay, transfected COS-1 microsomes on RDH2 (retinol dehydrogenase 2)

Data set [2] concerns the target T2, 5α-Red1 (5α-reductase 1; SRD5A1) (Rattus norvegicus, UniProt P24008).
T2 construct: Srd5a1 in pcDNA1.1, transient expression in COS-1 cells, microsomal fraction
T2 sequence (P24008 1-259): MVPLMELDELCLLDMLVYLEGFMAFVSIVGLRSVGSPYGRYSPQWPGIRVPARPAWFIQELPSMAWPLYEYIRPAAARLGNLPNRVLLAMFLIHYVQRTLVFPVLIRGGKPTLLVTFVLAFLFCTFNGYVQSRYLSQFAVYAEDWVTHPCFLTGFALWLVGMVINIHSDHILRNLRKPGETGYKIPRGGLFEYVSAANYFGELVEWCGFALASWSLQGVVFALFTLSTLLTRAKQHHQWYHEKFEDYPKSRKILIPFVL
Described as above. In kind it is biochemical. The text has this: radiometric TLC enzyme assay, transfected COS-1 microsomes on 5α-Red1 (5α-reductase 1; SRD5A1)

Data set [3] has as its target T3, 3α-HSD (3α-hydroxysteroid dehydrogenase; AKR1C14) (Rattus norvegicus, UniProt P23457).
T3 construct: gene Akr1c9; Akr1c14 in pRc/CMV, transient expression in COS-1 cells, cytosolic fraction
T3 sequence (P23457 1-322): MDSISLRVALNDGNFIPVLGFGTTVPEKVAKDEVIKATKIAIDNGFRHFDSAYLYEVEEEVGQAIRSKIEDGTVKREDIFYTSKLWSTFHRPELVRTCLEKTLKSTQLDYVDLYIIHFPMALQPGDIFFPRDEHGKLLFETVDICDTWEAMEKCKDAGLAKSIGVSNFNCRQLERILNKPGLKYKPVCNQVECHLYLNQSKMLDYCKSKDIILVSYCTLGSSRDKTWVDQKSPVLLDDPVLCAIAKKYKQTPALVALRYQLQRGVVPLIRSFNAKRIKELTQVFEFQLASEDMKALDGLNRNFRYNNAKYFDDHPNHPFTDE
Briefly: radiometric TLC enzyme assay, transfected COS-1 cytosol. In kind it is biochemical. From the text:
radiometric TLC enzyme assay, transfected COS-1 cytosol on 3α-HSD (3α-hydroxysteroid dehydrogenase; AKR1C14)

The target in data set [4] is T2, 5α-Red1 (5α-reductase 1; SRD5A1). In words: radiometric TLC enzyme assay, transfected COS-1 microsomes. In kind it is biochemical. The conditions noted are these: read-out: % of control activity at 100 μM.
Data set [5] has as its target T1, RDH2 (retinol dehydrogenase 2). Described as above. In kind it is biochemical. The conditions noted are these: read-out: % of control activity at 100 μM.
Substrate in data set [6]: C[C@]12CCC(=O)C[C@@H]1CC[C@@H]1[C@@H]2CC[C@]2(C)[C@@H](O)CC[C@@H]12
Briefly: cells, lysate or membranes. The conditions noted are these: 0.2 mM NADPH, 0.0315–10 µM dihydrotestosterone, PBS pH 7.2, radiolabelled tracer.

Substrate in data set [7]: C[C@]12CC[C@@H](O)C[C@@H]1CC[C@@H]1[C@@H]2CC[C@]2(C)[C@@H](O)CC[C@@H]12
In words: cells, lysate or membranes. As to conditions: 0.2 mM NAD+, 0.0315–10 µM DIOL, PBS pH 7.2, radiolabelled tracer.

Substrate in data set [8]: C[C@]12CC[C@H]3[C@@H](CCC4=CC(=O)CC[C@@]43C)[C@@H]1CC[C@@H]2O
Briefly: cells, lysate or membranes. As to conditions: 0.2 mM NADPH, 0.0315–10 µM testosterone, PBS pH 7.2, radiolabelled tracer.

Read-outs that look alike come from different tables or passages of the source.

Turning to `CC(C)(C)C(O)(CCc1ccc(Cl)cc1)Cn1cncn1` (stereo not drawn) [tebuconazole], the IC50 in data set [1] (read-out: 3α-HSD) was over 100 µM; in data set [2], 8.67 ± 0.771 µM; in data set [3] it was about 100 µM.
For `CC(C)(C)C(=O)C(Oc1ccc(Cl)cc1)n1cncn1` (stereo not drawn) [triadimefon], the IC50 in data set [1] (read-out: RDH2) was over 100 µM; in data set [2] it was 17.39 ± 0.079 µM; in data set [3] it was 26.49 ± 0.076 µM.
In data set [3], `C=CC1(C)OC(=O)N(c2cc(Cl)cc(Cl)c2)C1=O` (stereo not drawn) [vinclozolin] showed an IC50 of about 100 µM. The remaining activity at 100 µM in data set [4] came out at 74.2 ± 5.57%; in data set [5], 85.5 ± 2.2%.

B1: 3α-HSD (3α-hydroxysteroid dehydrogenase; AKR1C14) (Rattus norvegicus) (protein)
chain: MDSISLRVALNDGNFIPVLGFGTTVPEKVAKDEVIKATKIAIDNGFRHFDSAYLYEVEEEVGQAIRSKIEDGTVKREDIFYTSKLWSTFHRPELVRTCLEKTLKSTQLDYVDLYIIHFPMALQPGDIFFPRDEHGKLLFETVDICDTWEAMEKCKDAGLAKSIGVSNFNCRQLERILNKPGLKYKPVCNQVECHLYLNQSKMLDYCKSKDIILVSYCTLGSSRDKTWVDQKSPVLLDDPVLCAIAKKYKQTPALVALRYQLQRGVVPLIRSFNAKRIKELTQVFEFQLASEDMKALDGLNRNFRYNNAKYFDDHPNHPFTDE
For the molecule B1, in data set [6], the Km is listed as 3.148 ± 0.197 µM and the maximal velocity (Vmax) came to 6.67e-05 µmol/min/mg.

B2: RDH2 (retinol dehydrogenase 2) (Rattus norvegicus) (protein)
chain: MWLYLLALVGLWNLLRLFRERKVVSHLQDKYVFITGCDSGFGNLLARQLDRRGMRVLAACLTEKGAEQLRSKTSDRLETVILDVTKTESIVAATQWVKERVGNTGLWGLVNNAGISGHLGPNEWMNKQNIASVLDVNLLGMIEVTLSTVPLVRKARGRVVNVASIAGRLSFCGGGYCISKYGVEAFSDSLRRELSYFGVKVAIVEPGFFRTDVTNGVTLSSNFQMLWDQTSSEVREVYGENYLASYLKMLNGLDQRCNKDLSLVTDCMEHALTSCHPRTRYSAGWDAKFFYLPMSYLPTFLVDALFYWTSPKPEKAL
Regarding B2, in data set [7], the Km was found to be 2.850 ± 0.037 µM and the Vmax is 0.00053 µmol/min/mg.

B3: 5α-Red1 (5α-reductase 1; SRD5A1) (Rattus norvegicus) (protein)
chain: MVPLMELDELCLLDMLVYLEGFMAFVSIVGLRSVGSPYGRYSPQWPGIRVPARPAWFIQELPSMAWPLYEYIRPAAARLGNLPNRVLLAMFLIHYVQRTLVFPVLIRGGKPTLLVTFVLAFLFCTFNGYVQSRYLSQFAVYAEDWVTHPCFLTGFALWLVGMVINIHSDHILRNLRKPGETGYKIPRGGLFEYVSAANYFGELVEWCGFALASWSLQGVVFALFTLSTLLTRAKQHHQWYHEKFEDYPKSRKILIPFVL
Take B3: in data set [8], the Km is 1.397 ± 0.35 µM and the Vmax is 3.49e-06 µmol/min/mg.
